Laboratory results taken from ChEMBL document CHEMBL1201862, “PubChem BioAssay data set” (2004).
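Assay format: 96-well plates, 48-hour exposure. GI50 marks 50% less growth.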 Activity calls are given as the source filed them. No stated cut-off is given here; in the data, active = GI50 up to about 1.1 µM and inactive = higher.

Key:
Assay in all cases: NCI-60 cell line screen, 48 h
EKVX = system: EKVX
BT-549 = system: BT-549
K562 = system: K562
SF-295 = system: SF-295
A549 = system: A549
UACC-257 = system: UACC-257
HOP-62 = system: HOP-62
MOLT-4 = system: MOLT-4
HCC 2998 = system: HCC 2998
MCF7 = system: MCF7
RPMI-8226 = system: RPMI-8226
OVCAR-3 = system: OVCAR-3
SK-MEL-2 = system: SK-MEL-2
SF-268 = system: SF-268
SR = system: SR
NCI-H23 = system: NCI-H23
LOX IMVI = system: LOX IMVI
CCRF-CEM = system: CCRF-CEM
CAKI-1 = system: CAKI-1
T47D = system: T47D
NCI-H460 = system: NCI-H460
M14 = system: M14
786-0 = system: 786-0
HT-29 = system: HT-29
MDA-MB-435 = system: MDA-MB-435
DU-145 = system: DU-145
NCI-H522 = system: NCI-H522
SK-MEL-28 = system: SK-MEL-28
OVCAR-8 = system: OVCAR-8
HCT-116 = system: HCT-116
A498 = system: A498
PC-3 = system: PC-3
OVCAR-5 = system: OVCAR-5
KM12 = system: KM12
IGROV-1 = system: IGROV-1
SF-539 = system: SF-539
UACC-62 = system: UACC-62
SN12C = system: SN12C
NCI-H226 = system: NCI-H226
TK-10 = system: TK-10
SK-OV-3 = system: SK-OV-3
MDA-MB-231 = system: MDA-MB-231
COLO 205 = system: COLO 205
SK-MEL-5 = system: SK-MEL-5
OVCAR-4 = system: OVCAR-4
UO-31 = system: UO-31
NCI/ADR-RES = system: NCI/ADR-RES
MDA-N = system: MDA-N
HCT-15 = system: HCT-15
HOP-92 = system: HOP-92
Hs-578T = system: Hs-578T
U-251 = system: U-251
ACHN = system: ACHN
SW-620 = system: SW-620
Malme-3M = system: Malme-3M
HL-60 = system: HL-60
SNB-19 = system: SNB-19
SNB-75 = system: SNB-75
RXF 393 = system: RXF 393

For `Clc1ccc(CCN2CCN(CCCc3ccccc3)CC2)cc1Cl`, the GI50 (EKVX) was 17.4 µM (inactive), the GI50 (BT-549) was 15.8 µM (inactive) and the GI50 (K562) was 26.6 µM (inactive). For the same compound, the GI50 (SF-295) was 16.4 µM (inactive), the GI50 (A549) was 15.9 µM (inactive) and the GI50 (UACC-257) was 17.1 µM (inactive). For the same compound, the GI50 (HOP-62) was 18.5 µM (inactive), the GI50 (MOLT-4) was 29.6 µM (inactive) and the GI50 (HCC 2998) was 17 µM (inactive). For the same compound, the GI50 (MCF7) was 17.5 µM (inactive), the GI50 (RPMI-8226) was 20.9 µM (inactive) and the GI50 (OVCAR-3) was 16.4 µM (inactive). The GI50 (SK-MEL-2) was 18.8 µM (inactive), the GI50 (SF-268) was 20.4 µM (inactive) and the GI50 (SR) was 26.7 µM (inactive). For the same compound, the GI50 (NCI-H23) was 16.9 µM (inactive), the GI50 (LOX IMVI) was 17.2 µM (inactive) and the GI50 (CCRF-CEM) was 33.3 µM (inactive). For the same compound, the GI50 (CAKI-1) was 17.1 µM (inactive), the GI50 (T47D) was 17.2 µM (inactive) and the GI50 (NCI-H460) was 17.7 µM (inactive). For the same compound, the GI50 (M14) was 14.4 µM (inactive), the GI50 (786-0) was 16.6 µM (inactive) and the GI50 (HT-29) was 13.2 µM (inactive). The GI50 (MDA-MB-435) was 17.3 µM (inactive), the GI50 (DU-145) was 16.4 µM (inactive) and the GI50 (NCI-H522) was 20.6 µM (inactive). The GI50 (SK-MEL-28) was 18.7 µM (inactive), the GI50 (OVCAR-8) was 16.3 µM (inactive) and the GI50 (HCT-116) was 15.1 µM (inactive). The GI50 (A498) was 15.8 µM (inactive), the GI50 (PC-3) was 17.7 µM (inactive) and the GI50 (OVCAR-5) was 16.2 µM (inactive). For the same compound, the GI50 (KM12) was 17.7 µM (inactive), the GI50 (IGROV-1) was 17 µM (inactive) and the GI50 (SF-539) was 17.8 µM (inactive). For the same compound, the GI50 (UACC-62) was 16.8 µM (inactive), the GI50 (SN12C) was 16 µM (inactive) and the GI50 (NCI-H226) was 20.1 µM (inactive). For the same compound, the GI50 (TK-10) was 16.2 µM (inactive), the GI50 (SK-OV-3) was 19.3 µM (inactive) and the GI50 (MDA-MB-231) was 16.8 µM (inactive). For the same compound, the GI50 (COLO 205) was 15.4 µM (inactive), the GI50 (SK-MEL-5) was 15.8 µM (inactive) and the GI50 (OVCAR-4) was 16.3 µM (inactive). For the same compound, the GI50 (UO-31) was 12.2 µM (inactive), the GI50 (NCI/ADR-RES) was 14.7 µM (inactive) and the GI50 (MDA-N) was 16.9 µM (inactive). The GI50 (HCT-15) was 13.5 µM, the GI50 (HOP-92) was 11.3 µM (inactive) and the GI50 (Hs-578T) was 23.5 µM (inactive). For the same compound, the GI50 (U-251) was 17.4 µM (inactive), the GI50 (ACHN) was 19.6 µM (inactive) and the GI50 (SW-620) was 20 µM (inactive). For the same compound, the GI50 (Malme-3M) was 19.1 µM (inactive), the GI50 (HL-60) was 15.7 µM (inactive) and the GI50 (SNB-19) was 16.6 µM (inactive).

For `CC(Oc1ccccc1Cl)C(=O)NN1C(=O)CC(=O)N(c2ccccc2)C1=S` (configuration not stated), the GI50 (EKVX) was 57.1 µM (inactive), the GI50 (BT-549) was 54.1 µM (inactive) and the GI50 (K562) was 33.7 µM (inactive). The GI50 (SF-295) was 39.1 µM (inactive), the GI50 (A549) was 41.1 µM (inactive) and the GI50 (UACC-257) was 55.2 µM (inactive). The GI50 (HOP-62) was 46.7 µM (inactive), the GI50 (MOLT-4) was 30 µM (inactive) and the GI50 (HCC 2998) was 82.2 µM (inactive). For the same compound, the GI50 (MCF7) was 31 µM (inactive), the GI50 (RPMI-8226) was 47.8 µM (inactive) and the GI50 (OVCAR-3) was 38 µM (inactive). For the same compound, the GI50 (SK-MEL-2) was 34.4 µM (inactive), the GI50 (SF-268) was 86.7 µM (inactive) and the GI50 (SR) was 33.3 µM (inactive). The GI50 (NCI-H23) was 38.1 µM (inactive), the GI50 (LOX IMVI) was 38.4 µM (inactive) and the GI50 (CAKI-1) was 41.2 µM (inactive). The GI50 (T47D) was 31.9 µM (inactive), the GI50 (NCI-H460) was 44.2 µM (inactive) and the GI50 (M14) was 59 µM (inactive). The GI50 (786-0) was 94.8 µM (inactive), the GI50 (HT-29) was 54.5 µM (inactive) and the GI50 (MDA-MB-435) was 42.6 µM (inactive). The GI50 (DU-145) was 42.9 µM (inactive), the GI50 (NCI-H522) was 37 µM (inactive) and the GI50 (SK-MEL-28) was 88.3 µM (inactive). The GI50 (OVCAR-8) was 41.4 µM (inactive), the GI50 (HCT-116) was 34.9 µM (inactive) and the GI50 (A498) was 22.3 µM (inactive). For the same compound, the GI50 (PC-3) was 40.8 µM (inactive), the GI50 (OVCAR-5) was > 100 µM (inactive) and the GI50 (KM12) was 60.1 µM (inactive). For the same compound, the GI50 (IGROV-1) was 52.6 µM (inactive), the GI50 (SF-539) was 66.7 µM (inactive) and the GI50 (UACC-62) was 33.3 µM (inactive). The GI50 (SN12C) was > 100 µM (inactive), the GI50 (NCI-H226) was 38.6 µM (inactive) and the GI50 (TK-10) was 74.8 µM (inactive). For the same compound, the GI50 (SK-OV-3) was 51.5 µM (inactive), the GI50 (MDA-MB-231) was 42.7 µM (inactive) and the GI50 (COLO 205) was 32.2 µM (inactive). For the same compound, the GI50 (SK-MEL-5) was 42.8 µM (inactive), the GI50 (OVCAR-4) was 54 µM (inactive) and the GI50 (UO-31) was 53 µM (inactive). For the same compound, the GI50 (NCI/ADR-RES) was 38.5 µM (inactive), the GI50 (SNB-75) was 49.1 µM (inactive) and the GI50 (MDA-N) was 82.2 µM (inactive). For the same compound, the GI50 (HCT-15) was 38 µM, the GI50 (HOP-92) was 20.4 µM (inactive) and the GI50 (Hs-578T) was > 100 µM (inactive). For the same compound, the GI50 (U-251) was 41 µM (inactive), the GI50 (ACHN) was 38.3 µM (inactive) and the GI50 (SW-620) was 55.7 µM (inactive). For the same compound, the GI50 (Malme-3M) was > 100 µM (inactive), the GI50 (HL-60) was 18.7 µM (inactive) and the GI50 (RXF 393) was 32.1 µM (inactive). The GI50 (SNB-19) was 71.1 µM (inactive).

With `CC1CC[C@]2(C(=O)O)CCC3(C)C(=C2[C@H]1C)C=CC1[C@@]2(C)CC[C@H](O)C(C)(C)C2CC[C@]13C` (some centres not stated) the GI50 (EKVX) was 32.8 µM (inactive), the GI50 (BT-549) was 33.7 µM (inactive) and the GI50 (K562) was 14.7 µM (inactive). For the same compound, the GI50 (SF-295) was 19.9 µM (inactive), the GI50 (A549) was 11.8 µM (inactive) and the GI50 (UACC-257) was 45 µM (inactive). For the same compound, the GI50 (HOP-62) was 21.1 µM (inactive), the GI50 (MOLT-4) was 23.7 µM (inactive) and the GI50 (HCC 2998) was 29.7 µM (inactive). For the same compound, the GI50 (MCF7) was 30 µM (inactive), the GI50 (RPMI-8226) was 12.2 µM (inactive) and the GI50 (OVCAR-3) was 17.5 µM (inactive). For the same compound, the GI50 (SK-MEL-2) was 64.9 µM (inactive), the GI50 (SF-268) was 27.7 µM (inactive) and the GI50 (SR) was 12.4 µM (inactive). For the same compound, the GI50 (NCI-H23) was 24.9 µM (inactive), the GI50 (LOX IMVI) was 33.1 µM (inactive) and the GI50 (CCRF-CEM) was 29.7 µM (inactive). For the same compound, the GI50 (CAKI-1) was 22.8 µM (inactive), the GI50 (T47D) was 19.1 µM (inactive) and the GI50 (NCI-H460) was 21.6 µM (inactive). For the same compound, the GI50 (M14) was 44.9 µM (inactive), the GI50 (786-0) was 29.9 µM (inactive) and the GI50 (HT-29) was 31.1 µM (inactive). The GI50 (MDA-MB-435) was 63.1 µM (inactive), the GI50 (DU-145) was 16.6 µM (inactive) and the GI50 (NCI-H522) was 23.1 µM (inactive). For the same compound, the GI50 (SK-MEL-28) was 28.3 µM (inactive), the GI50 (OVCAR-8) was 27.7 µM (inactive) and the GI50 (HCT-116) was 17.6 µM (inactive). For the same compound, the GI50 (PC-3) was 21.1 µM (inactive), the GI50 (OVCAR-5) was 39.5 µM (inactive) and the GI50 (KM12) was 31 µM (inactive). For the same compound, the GI50 (IGROV-1) was 27.9 µM (inactive), the GI50 (SF-539) was 17.3 µM (inactive) and the GI50 (UACC-62) was 42.2 µM (inactive). The GI50 (SN12C) was 59.3 µM (inactive), the GI50 (NCI-H226) was 66.1 µM (inactive) and the GI50 (TK-10) was 33.5 µM (inactive). For the same compound, the GI50 (SK-OV-3) was 16.6 µM (inactive), the GI50 (MDA-MB-231) was 21.3 µM (inactive) and the GI50 (COLO 205) was 44.4 µM (inactive). For the same compound, the GI50 (SK-MEL-5) was 21.4 µM (inactive), the GI50 (OVCAR-4) was 30.1 µM (inactive) and the GI50 (NCI/ADR-RES) was 36.6 µM (inactive). For the same compound, the GI50 (SNB-75) was 24.5 µM (inactive), the GI50 (MDA-N) was 56.9 µM (inactive) and the GI50 (HCT-15) was 27.4 µM. For the same compound, the GI50 (HOP-92) was 18.7 µM (inactive), the GI50 (Hs-578T) was 26 µM (inactive) and the GI50 (U-251) was 29 µM (inactive). For the same compound, the GI50 (ACHN) was 16.4 µM (inactive), the GI50 (SW-620) was 45.9 µM (inactive) and the GI50 (Malme-3M) was 26.6 µM (inactive). For the same compound, the GI50 (HL-60) was 18.6 µM (inactive), the GI50 (RXF 393) was 3.8 µM (inactive) and the GI50 (SNB-19) was 30.5 µM (inactive).
